# Source: patent publication US20040259082A1
# How the values were obtained:
# [1] = Photodegradation and single molecule detection calculation; settings: 60 photons, 0.45% detection efficiency, 13,333 excitations
# [2] = Capillary electrophoresis of unlabeled nucleotides with Mg++; type: physicochemical
# Procedure: FIG. 14 illustrates the effect of Mg^++ on electrophoretic mobility of unlabeled nucleotides.
# Electrophoresis Results. A γ-dNTP (FIG. 13A) with the charge configuration N(0) F(+2) was synthesized and its electrophoretic mobility examined in an agarose gel as a function of Mg^++ concentration (FIG. 13B). As expected (FIG. 12B), its mobility changed from negative to positive with increasing Mg^++, passing through zero at about 3 mM Mg^++. A direct comparison with the calculation (FIG. 12B) is not possible because, while the gels contained the indicated Mg^++ concentrations, the samples (20 μL) loaded in each lane contained 10 mM Mg^++. The importance of attaching a (+2) charge to the γ-label (FIG. 13A) with respect to obtaining a bipolar switch mode (neg to pos) is illustrated by a capillary electrophoresis experiment with unlabeled dTDP and dTTP (FIG. 14). […] It is clear that additional positive charge can be added to the these nucleotides if one desires a negative to positive charge switch. This is what was done with the γ-dNTP of FIG. 13.
# T7 Sequenase 2.0 = T7 Sequenase 2.0 (Escherichia phage T7, UniProt P00581, DEL118-145); settings: dATP, dCTP, dGTP plus AA-dUTP
# From the text: Samples contain dATP, dCTP, dGTP and either dUTP (first lane of each enzyme) or AA-dUTP (second lane each enzyme). Arrows indicate the extension products.
# HIV-RT = HIV-RT (Human immunodeficiency virus type 1 group M subtype B, UniProt P03366); assay: Charged nucleobase (aminoallyl-dUTP) as polymerase substrate; type: biochemical; settings: dATP, dCTP, dGTP plus AA-dUTP
# Procedure: (§1) Arrows indicate the extension products.
# (§2) Charged Nucleobase as a Polymerase Substrate. […] Aminoallyl-dUTP was tested with 4 different polymerases.
# Klenow = Klenow (Escherichia coli, UniProt P00582); assay: as above; type: biochemical; settings: dATP, dCTP, dGTP plus AA-dUTP
# Procedure: as §1, §2
# Taq = Taq (Thermus aquaticus, UniProt P19821); assay: as above; type: biochemical; settings: dATP, dCTP, dGTP plus AA-dUTP
# Procedure: as §1, §2
# HIV-1 RT = HIV-1 RT (Human immunodeficiency virus type 1 group M subtype B, UniProt P03366); settings: 50 μM dATP, dCTP, dGTP; 37° C. for 30 min
# Procedure: FIG. 6 illustrates the utilization of different γ-dNTPs by T7 Sequenase 2.0 and HIV polymerases. Samples contain 50 μM dATP, dCTP, dGTP and either (a) dUTP; (b) γ-dUTP-BodipyTR; (c) γ-dUTP-Fluorescein; or a control (d) omitting dUTP and its analogs. Incubation was at 37° C. for 30 min.
# 18 commercially-available polymerases were screened for the utilization of γ-dUTP-BodipyTR.
# T7 polymerase exo- = target: T1, T7 polymerase exo- (Escherichia phage T7, UniProt P00581, D5A/E7A); assay: Steady-state kinetics, Km determination for dTTP; type: biochemical; settings: Lineweaver-Burk plot; 5 sec at 20° C.
# T1 construct: made in house; host or cells: E. coli TOP 10
# Sequence of Taq (P19821 whole entry): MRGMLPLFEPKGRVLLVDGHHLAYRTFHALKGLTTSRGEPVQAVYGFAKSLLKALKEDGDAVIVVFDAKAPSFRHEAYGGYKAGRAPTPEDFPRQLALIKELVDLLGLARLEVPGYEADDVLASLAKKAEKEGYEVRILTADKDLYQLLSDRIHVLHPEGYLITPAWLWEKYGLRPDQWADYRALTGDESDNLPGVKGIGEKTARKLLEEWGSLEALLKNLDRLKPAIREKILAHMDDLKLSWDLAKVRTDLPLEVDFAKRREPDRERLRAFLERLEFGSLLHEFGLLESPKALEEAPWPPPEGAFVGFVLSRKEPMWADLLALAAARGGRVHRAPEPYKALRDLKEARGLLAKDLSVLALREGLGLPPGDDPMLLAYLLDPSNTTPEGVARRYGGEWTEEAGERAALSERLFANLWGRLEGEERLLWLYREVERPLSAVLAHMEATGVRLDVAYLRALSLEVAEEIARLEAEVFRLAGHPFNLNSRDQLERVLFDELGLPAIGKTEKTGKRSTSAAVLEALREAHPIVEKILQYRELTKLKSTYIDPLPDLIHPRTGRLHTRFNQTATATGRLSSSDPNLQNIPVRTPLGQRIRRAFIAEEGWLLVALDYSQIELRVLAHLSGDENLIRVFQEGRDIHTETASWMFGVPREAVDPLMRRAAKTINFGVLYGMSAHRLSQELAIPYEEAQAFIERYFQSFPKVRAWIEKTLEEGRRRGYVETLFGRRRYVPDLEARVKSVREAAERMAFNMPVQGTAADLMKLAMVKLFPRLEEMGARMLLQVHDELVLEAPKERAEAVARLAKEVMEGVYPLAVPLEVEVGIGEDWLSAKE
smiles,measurement,setting,value
"CN(C)c1ccc2c(-c3ccccc3C(=O)[O-])c3ccc(N(C)C)cc3[o+]c2c1 [TMR, tetramethylrhodamine]",molecules escaping detection due to photodegradation,[1],0.44%
Cc1cn([C@H]2C[C@H](O)[C@@H](COP(=O)(O)OP(=O)(O)O)O2)c(=O)[nH]c1=O [dTDP],charge in presence of Mg++,[2],remained in negative territory
NC/C=C/c1cn([C@H]2C[C@H](O)[C@@H](COP(=O)(O)OP(=O)(O)OP(=O)(O)O)O2)c(=O)[nH]c1=O [Aminoallyl-dUTP],extension product with AA-dUTP,T7 Sequenase 2.0,produced full-length product
same,extension product with AA-dUTP,HIV-RT,produced full-length product
same,extension product with AA-dUTP,Klenow,stopped at the dUTP incorporation sites
same,extension product with AA-dUTP,Taq,stopped at the dUTP incorporation sites
O=c1ccn([C@H]2C[C@H](O)[C@@H](COP(=O)(O)OP(=O)(O)OP(=O)(O)O)O2)c(=O)[nH]1 [dUTP],incorporation of γ-dUTP analogs / dUTP (FIG. 6),HIV-1 RT,synthesized full-length product
Cc1cn([C@H]2C[C@H](O)[C@@H](COP(=O)(O)OP(=O)(O)OP(=O)(O)O)O2)c(=O)[nH]c1=O [dTTP],charge in presence of Mg++,[2],remained in negative territory
same,Km,T7 polymerase exo-,13 µM
